Earlier results as cited in PubChem BioAssay AID1259409 (Chemical Carcinogenesis Research Information System (CCRIS), 2018).

System: rodent chemically induced tumor inhibition, incidence and multiplicity
Assay: CCRIS tumor inhibitor studies
Details: for outcome: Carcinogen: 7,12-Dimethylbenz[a]anthracene, 57-97-6 and 12-O-Tetradecanoylphorbol-13-acetate, Dose [Inhibitor]: 50 ug/ml in acetone by topical application starting on the 16th wk and continuing to end of study (study duration: 30 wk, Route [Inhibitor]: Skin, Species: Mouse, Strain/Sex: Albino/Sex not given, Target Tissue: Type of Lesion: Skin, Dose [Carcinogen]: DMBA in acetone, 100 ug/ml, single topical dose, TPA in acetone, 10 ug/ml, topical administration twice a wk for 15 wk

## CC1=C(/C=C/C(C)=C/C=C/C(C)=C\C(=O)O)C(C)(C)CCC1
Carcinogen: 1,2-DIMETHYLHYDRAZINE, 540-73-8, Dose [Inhibitor]: 67 µM/G DIET, Route [Inhibitor]: ORAL, Species: RAT, Strain/Sex: SPRAGUE-DAWLEY/MALE, Target Tissue: Type of Lesion: COLON: TUMOR, Dose [Carcinogen]: 30 MG/KG BW 1/WK FOR 5 WK, Promoter: NONE USED
  tumour outcome (control, treated, inhibition, significance): 20/20 (100%), 8/20 (40%), 60%, not calculated
Carcinogen: 1,2-DIMETHYLHYDRAZINE, 5400-73-8, Dose [Inhibitor]: 67 UG/G DIET FED SIMULTANEOUSLY DURING CARCINOGEN TREATMENT (STUDY DURATION: 46 WK), Route [Inhibitor]: ORAL, Species: RAT, Strain/Sex: WISTAR/FEMALE, Target Tissue: Type of Lesion: COLON: ADENOCARCINOMA, Dose [Carcinogen]: 15 MG/KG BW/WK FOR 28 WK, Promoter: NONE USED
  tumour outcome (control, treated, inhibition, significance): 8/12 (67%), 5/10 (50%), 25%, not significant
Carcinogen: 1,2-DIMETHYLHYDRAZINE, 5400-73-8, Dose [Inhibitor]: 67 UG/G DIET FED SIMULTANEOUSLY DURING CARCINOGEN TREATMENT (STUDY DURATION: 46 WK), Route [Inhibitor]: ORAL, Species: RAT, Strain/Sex: WISTAR/FEMALE, Target Tissue: Type of Lesion: SMALL INTESTINE: ADENOCARCINOMA, Dose [Carcinogen]: 15 MG/KG BW/WK FOR 28 WK, Promoter: NONE USED
  tumour outcome (control, treated, inhibition, significance): 8/12 (67%), 9/10 (90%), -34%, not significant
Carcinogen: 3-METHYLCHOLANTHRENE, 56-49-5, Dose [Inhibitor]: 3 MG IN 0.1 ML ACETONE STARTING 2 WK AFTER START OF CARCINOGEN TREATMENT AND APPLIED 2/WK DURING WK 3-5 OF THE STUDY AND, Route [Inhibitor]: DERMAL, Species: MOUSE, Strain/Sex: SWISS/FEMALE, Target Tissue: Type of Lesion: SKIN: CARCINOMA, Dose [Carcinogen]: 0.1 ML OF 0.3% DISSOLVED IN ACETONE APPLIED 2/WK FIRST 5 WK THEN 1/WK FOR WK 6-9 FOLLOWED BY NO FURTHER TREATMENT THROUG, Promoter: NONE USED
  tumour outcome (control, treated, inhibition, significance): 5/19 (26%), 2/20 (10%), 62%, not calculated
Carcinogen: 3-METHYLCHOLANTHRENE, 56-49-5, Dose [Inhibitor]: 3 MG IN 0.1 ML ACETONE STARTING 2 WK AFTER START OF CARCINOGEN TREATMENT AND APPLIED 2/WK DURING WK 3-5 OF THE STUDY AND, Route [Inhibitor]: DERMAL, Species: MOUSE, Strain/Sex: SWISS/FEMALE, Target Tissue: Type of Lesion: SKIN: PAPILLOMA, Dose [Carcinogen]: 0.1 ML OF 0.3% DISSOLVED IN ACETONE APPLIED 2/WK FIRST 5 WK THEN 1/WK FOR WK 6-9 FOLLOWED BY NO FURTHER TREATMENT THROUG, Promoter: NONE USED
  tumour outcome (control, treated, inhibition, significance): 9/19 (47%), 4/20 (20%), 57%, not calculated
16561-29-8, 16561-29-8
  outcome: malignant lesions: 4/20 (20%), 4/20 (20%), not significant
16561-29-8, 16561-29-8, Promoter: None
  outcome: malignant lesions: 5/20 (20%), 4/20 (20%), not significant
Carcinogen: AZOXYMETHANE, 25843-45-2, Dose [Inhibitor]: 50 MG/KG DIET DAILY STARTING SIMULTANEOUSLY WITH CARCINOGEN TREATMENT AND CONTINUING THROUGH END OF STUDY (STUDY DURATIO, Route [Inhibitor]: ORAL, Species: RAT, Strain/Sex: SPRAGUE-DAWLEY/MALE, Target Tissue: Type of Lesion: LARGE INTESTINE: MALIGNANT TUMOR, Dose [Carcinogen]: 8 MG/KG BW 1/WK FOR 8 WK, Promoter: NONE USED
  tumour outcome (control, treated, inhibition, significance): 90%, 90%, 0%, not significant
Carcinogen: AZOXYMETHANE, 25843-45-2, Dose [Inhibitor]: 50 MG/KG DIET DAILY STARTING SIMULTANEOUSLY WITH CARCINOGEN TREATMENT AND CONTINUING THROUGH END OF STUDY (STUDY DURATIO, Route [Inhibitor]: ORAL, Species: RAT, Strain/Sex: SPRAGUE-DAWLEY/MALE, Target Tissue: Type of Lesion: SMALL INTESTINE: MALIGNANT TUMOR, Dose [Carcinogen]: 8 MG/KG BW 1/WK FOR 8 WK, Promoter: NONE USED
  tumour outcome (control, treated, inhibition, significance): 90%, 83%, 8%, not significant
Carcinogen: AZOXYMETHANE, 25843-45-2, Dose [Inhibitor]: 50 MG/KG IN DIET DAILY FOR 26 WK STARTING SIMULTANEOUSLY WITH CARCINOGEN TREATMENT (STUDY DURATION: 26 WK), Route [Inhibitor]: ORAL, Species: RAT, Strain/Sex: SPRAGUE-DAWLEY/MALE, Target Tissue: Type of Lesion: LARGE INTESTINE: MALIGNANT TUMOR, Dose [Carcinogen]: 8 MG/KG BW 1/WK FOR 8 WK, Promoter: NONE USED
  tumour outcome (control, treated, inhibition, significance): 90%, 90%, 0%, not significant
Carcinogen: AZOXYMETHANE, 25843-45-2, Dose [Inhibitor]: 50 MG/KG IN DIET DAILY FOR 26 WK STARTING SIMULTANEOUSLY WITH CARCINOGEN TREATMENT (STUDY DURATION: 26 WK), Route [Inhibitor]: ORAL, Species: RAT, Strain/Sex: SPRAGUE-DAWLEY/MALE, Target Tissue: Type of Lesion: SMALL INTESTINE: TUMOR, Dose [Carcinogen]: 8 MG/KG BW 1/WK FOR 8 WK, Promoter: NONE USED
  tumour outcome (control, treated, inhibition, significance): 90%, 83%, 8%, not significant
Carcinogen: BENZO[A]PYENE, 50-32-8, Dose [Inhibitor]: 17 NMOL 2/WK 0.5 HR BEFORE EACH PROMOTER APPLICATION FOR 24 WK STARTING 7 D AFTER CARCINOGEN APPLICATION (STUDY DURATION, Route [Inhibitor]: DERMAL, Species: MOUSE, Strain/Sex: SENCAR, Target Tissue: Type of Lesion: SKIN: PAPILLOMA, Dose [Carcinogen]: 400 NMOL ONCE, Promoter: ANTHRALIN, 1143-38-0
  tumour outcome (control, treated, inhibition, significance): 73%, 83%, -14%, not significant
Carcinogen: BENZO[A]PYENE, 50-32-8, Dose [Inhibitor]: 34 NMOL ONCE 0.5 HR BEFORE CARCINOGEN APPLICATION (STUDY DURATION: 25 WK), Route [Inhibitor]: DERMAL, Species: MOUSE, Strain/Sex: CD-1/FEMALE, Target Tissue: Type of Lesion: SKIN: PAPILLOMA, Dose [Carcinogen]: 200 NMOL IN 0.2 ML ACETONE ONCE 0.5 HR AFTER AGENT TREATMENT, Promoter: 12-O-TETRADECANOYLPHORBOL-13-ACETATE, 16561-29-8
  tumour outcome (control, treated, inhibition, significance): 90%, 98%, -9%, not significant
Carcinogen: BENZO[A]PYRENE, 50-32-8, Dose [Inhibitor]: 0, 240 MG/KG OF DIET FOR 6 WK (STUDY DURATION: 9 WK), Route [Inhibitor]: ORAL, Species: MOUSE, Strain/Sex: NIGP(S)/FEMALE, Target Tissue: Type of Lesion: LUNG: ADENOMA, Dose [Carcinogen]: 0.5 MG INJECTED IN THE SCAPULAR REGION OF NEWBORN MICE ONCE, Promoter: NONE USED
  tumour outcome (control, treated, inhibition, significance): 35%, 55%, -57%, not calculated
Carcinogen: BENZO[A]PYRENE, 50-32-8, Dose [Inhibitor]: 0, 240 MG/KG OF DIET FOR 6 WK (STUDY DURATION: 9 WK), Route [Inhibitor]: ORAL, Species: MOUSE, Strain/Sex: NIGP(S)/MALE, Target Tissue: Type of Lesion: LUNG: ADENOMA, Dose [Carcinogen]: 0.5 MG INJECTED IN THE SCAPULAR REGION OF NEWBORN MICE ONCE, Promoter: NONE USED
  tumour outcome (control, treated, inhibition, significance): 48%, 42%, 13%, not calculated
Carcinogen: N,N-DIMETHYLNITROSAMINE, 62-75-9, Dose [Inhibitor]: 240 MG/KG OF DIET DAILY FOR 3 WK STARTING 2 D AFTER CARCINOGEN TREATMENT AT 6 WK OF AGE AND THEN OBSERVED UNTIL DEATH (S, Route [Inhibitor]: ORAL, Species: RAT, Strain/Sex: WISTAR/FEMALE, Target Tissue: Type of Lesion: KIDNEY: MESENCHYMAL TUMOR, Dose [Carcinogen]: 40 MG/KG BW ONCE, Promoter: NONE USED
  tumour outcome (control, treated, inhibition, significance): 22/27 (82%), 27/32 (84%), -2%, not significant
Carcinogen: N,N-DIMETHYLNITROSAMINE, 62-75-9, Dose [Inhibitor]: 240 MG/KG OF DIET DAILY FOR 3 WK STARTING 2 D AFTER CARCINOGEN TREATMENT AT 6 WKOF AGE AND THEN OBSERVED UNTIL DEATH (ST, Route [Inhibitor]: ORAL, Species: RAT, Strain/Sex: WISTAR/FEMALE, Target Tissue: Type of Lesion: KIDNEY: EPITHELIAL TUMOR (ADENOMA, ADENOCARCINOMA), Dose [Carcinogen]: 40 MG/KG BW ONCE, Promoter: NONE USED
  tumour outcome (control, treated, inhibition, significance): 13/27 (48%), 17/32 (53%), -10%, not significant
Carcinogen: N,N-DIMETHYLNITROSAMINE, 62-75-9, Dose [Inhibitor]: 240 MG/KG OF DIET DAILY FOR 10 WK STARTING 2 D AFTER CARCINOGEN TREATMENT AT 6 WK OF AGE AND THEN OBSERVED UNTIL DEATH (, Route [Inhibitor]: ORAL, Species: RAT, Strain/Sex: WISTAR/FEMALE, Target Tissue: Type of Lesion: KIDNEY: EPITHELIAL TUMOR (ADENOMA, ADENOCARCINOMA), Dose [Carcinogen]: 40 MG/KG BW ONCE, Promoter: NONE USED
  tumour outcome (control, treated, inhibition, significance): 13/27 (48%), 11/29 (38%), 21%, not significant
Carcinogen: N,N-DIMETHYLNITROSAMINE, 62-75-9, Dose [Inhibitor]: 240 MG/KG OF DIET DAILY FOR 26 WK STARTING 2 D AFTER CARCINOGEN TREATMENT AT 6 WK OF AGE AND THEN OBSERVED UNTIL DEATH (, Route [Inhibitor]: ORAL, Species: RAT, Strain/Sex: WISTAR/FEMALE, Target Tissue: Type of Lesion: KIDNEY: EPITHELIAL TUMOR (ADENOMA, ADENOCARCINOMA), Dose [Carcinogen]: 40 MG/KG BW ONCE, Promoter: NONE USED
  tumour outcome (control, treated, inhibition, significance): 13/27 (48%), 11/21 (52%), -8%, not significant
Carcinogen: N,N-DIMETHYLNITROSAMINE, 62-75-9, Dose [Inhibitor]: 240 MG/KG OF DIET DAILY FOR 26 WK STARTING 2 D AFTER CARCINOGEN TREATMENT AT 6 WK OF AGE AND THEN OBSERVED UNTIL DEATH (, Route [Inhibitor]: ORAL, Species: RAT, Strain/Sex: WISTAR/FEMALE, Target Tissue: Type of Lesion: KIDNEY: MESENCHYMAL TUMOR, Dose [Carcinogen]: 40 MG/KG BW ONCE, Promoter: NONE USED
  tumour outcome (control, treated, inhibition, significance): 22/27 (82%), 21/21 (100%), -22%, not significant
Carcinogen: N-(4-(5-NITRO-2-FURYL)-2-THIAZOLYL)FORMAMIDE, 24554-26-5, Dose [Inhibitor]: 120 MG/KG DIET DAILY STARTING 1 WK AFTER COMPLETION OF CARCINOGEN TREATMENT AND CONTINUING UNTIL END OF STUDY (STUDY DUR, Route [Inhibitor]: ORAL, Species: RAT, Strain/Sex: F344/FEMALE, Target Tissue: Type of Lesion: URINARY BLADDER: CARCINOMA, Dose [Carcinogen]: 2 G/KG DIET DAILY FOR 10 WK, Promoter: NONE USED
  tumour outcome (control, treated, inhibition, significance): 36/100 (36%), 42/100 (42%), -17%, p 0.135
